What was measured:
[1] = system: LoVo; experiment: Antiproliferative activity against human LoVo cells after 72 hrs by MTT assay; type: functional, cell-based
[2] = Antiproliferative activity against apoptosis resistant human U373 cells after 72 hrs by MTT assay; type: functional, cell-based, U-373MG ATCC; conditions: U373 MG
[3] = system: A549; experiment: Antiproliferative activity against apoptosis resistant human A549 cells after 72 hrs by MTT assay; type: functional, cell-based; conditions: A549, 72 h
[4] = Antiproliferative activity against apoptosis resistant human OE21 cells after 72 hrs by MTT assay; type: functional, cell-based; conditions: OE21, 72 h
[5] = system: SK-MEL-28; experiment: Antiproliferative activity against apoptosis resistant human SK-MEL-28 cells after 72 hrs by MTT assay; type: functional, cell-based; conditions: SK-MEL-28, 72 h
[6] = Antiproliferative activity against apoptosis sensitive human Hs683 cells after 72 hrs by MTT assay; type: functional, cell-based; conditions: Hs 683, 72 h
[7] = Antiproliferative activity against apoptosis sensitive mouse B16F10 cells after 72 hrs by MTT assay; type: functional, cell-based; conditions: B16-F10, 72 h
[8] = Antiproliferative activity against apoptosis sensitive human PC3 cells after 72 hrs by MTT assay; type: functional, cell-based; conditions: PC-3, 72 h
[9] = system: MCF7; experiment: Antiproliferative activity against apoptosis sensitive human MCF7 cells after 72 hrs by MTT assay; type: functional, cell-based; conditions: MCF7, 72 h

SMILES | IC50 [1] [µM] | IC50 [3] [µM] | IC50 [5] [µM] | IC50 [9] [µM] | IC50 [2] [µM] | IC50 [4] [µM] | IC50 [6] [µM] | IC50 [7] [µM] | IC50 [8] [µM]
O=C1NC(=S)S/C1=C1\C(=O)Nc2ccccc21 | 69.3 | 99 | 96.6 | > 100 | 85.3 | 47.2 | 93.3 | 73.5 | > 100
O=C1NC(=O)/C(=C2/C(=O)Nc3ccccc32)S1 | 5.2 | 60.7 | > 100 | > 100 | 86.4 | 38 | 89.7 | 2.8 | 67.5
O=C1Nc2c(Cl)cccc2/C1=C1/Nc2ccccc2C1=O | > 100 | > 100 | > 100 | > 100 | > 100 | 35.3 | 55.2 | 15.7 | > 100
O=C1Nc2c(F)cccc2/C1=C1/Nc2ccccc2C1=O | 42 | > 100 | > 100 | 44.8 | 45.8 | 29 | 38.7 | 16.3 | > 100
O=C1NC(=O)/C(=C2/C(=O)Nc3ccccc32)N1 | 76.1 | 66.5 | > 100 | 94.6 | > 100 | 52.3 | 84.7 | 73.3 | 95.5
O=C1NC(=S)N/C1=C1\C(=O)Nc2c(Br)cccc21 | 37 | 3.8 | 11.7 | 51 | 4.7 | 20.2 | 40.8 | 5 | 22.8
O=C1Nc2ccccc2/C1=C1/Cc2ccccc2C1=O | 52.6 | > 100 | > 100 | 70.2 | > 100 | 25.1 | > 100 | > 100 | > 100
O=C1NC(=S)S/C1=C1\C(=O)Nc2ccc(Br)cc21 | 52.1 | 36.2 | 53.5 | 82.9 | 41.7 | 62.5 | 93.6 | 0.1 | 44.3
O=C1Nc2ccccc2/C1=C1/Cc2ccccc2/C1=N\O | 18.7 | 28.7 | 33.7 | 38.5 | 28 | 27.8 | 22.9 | 32.6 | 33.1
O=C1NC(=S)N/C1=C1\C(=O)Nc2ccccc21 | 60.2 | 45.8 | 62.9 | 87.8 | 51.9 | 38.7 | 52.9 | 41.6 | 75.5
O=C1Nc2ccccc2/C1=C1/Oc2ccccc2C1=O | 4.1 | 23.3 | 23.8 | 0.3 | 27.7 | 25.9 | 25.7 | < 0.01 | 36.1
CC1(C)CCC2=C(O1)c1ccccc1C(=O)C2=O [LAPACHONE] | 0.3 | 0.8 | 0.6 | 0.5 | 0.4 | 0.6 | 0.4 | 0.3 | < 0.01

Further lines, with some results ahead:

IC50 [1] [µM] | IC50 [3] [µM] | IC50 [5] [µM] | IC50 [9] [µM] | SMILES | IC50 [2] [µM] | IC50 [4] [µM] | IC50 [6] [µM] | IC50 [7] [µM] | IC50 [8] [µM]
5.6 | 13.9 | 9.8 | 4.9 | O=C1Nc2c(Br)cccc2/C1=C1/Nc2ccccc2/C1=N\O | 6.6 | 3.9 | 8.1 | 5.3 | 7.8
12 | > 100 | > 100 | 37.3 | O=C1Nc2ccc(Br)cc2/C1=C1/Nc2ccccc2C1=O | 8.6 | 3.8 | 14.1 | 3.8 | > 100
8.9 | 27 | 26.6 | 9.2 | O=C1Nc2ccccc2/C1=C1/Nc2ccccc2/C1=N\O | 18 | 8.1 | 6 | 5.4 | 24.3
10.2 | 45.2 | 40.1 | 27.5 | O=C1Nc2c(Cl)cccc2/C1=C1/Nc2ccccc2/C1=N\O | 31.5 | 19.6 | 25.3 | 12.9 | 29.7
9 | 33.3 | 44.6 | 26.2 | O=C1Nc2c(F)cccc2/C1=C1/Nc2ccccc2/C1=N\O | 19.7 | 9.2 | 9.3 | 7.8 | 26
52.8 | > 100 | > 100 | 65.2 | O=C1Nc2ccc(Br)cc2/C1=C1/Cc2ccccc2C1=O | 41.4 | 56 | 47.3 | 69.1 | > 100
32.3 | > 100 | > 100 | 52.8 | O=C1Nc2c(Br)cccc2/C1=C1/Nc2ccccc2C1=O | 8.1 | 8.7 | 6.9 | 3.2 | > 100
6.6 | 7.2 | 17.3 | 5.8 | O=C1Nc2ccc(Br)cc2/C1=C1/Nc2ccccc2/C1=N\O [INDIRUBIN 2] | 8 | 3.6 | 8.4 | 0.5 | 6.8
> 100 | > 100 | > 100 | > 100 | O=C1Nc2ccccc2/C1=C1/Nc2ccccc2C1=O [INDIRUBIN] | > 100 | 30.5 | > 100 | 0.2 | > 100

— ChEMBL document CHEMBL3792301, “Isatin derivatives with activity against apoptosis-resistant cancer cells” (Bioorg Med Chem Lett, 2016)
